{"source": "patent US9114120B2", "about": "“Therapeutical method for the treatment of the Leber optic neuropathy” (SIGMA-TAU INDUSTRIE FARMACEUTICHE RIUNITE, S.P.A., priority 2010, dated 2015)", "system": "Patients with LHON", "assay": "Example 2: 12-month double blind, placebo controlled study of acetyl L-carnitine, visual acuity", "type": "in vivo, human", "details": "for Visual Acuity Change, Diff / Visual Acuity Recovery, Diff: ALC 2 g/day orally vs placebo", "source_text": "30 Patients with LHON were enrolled. To be eligible, participants were required to meet the following inclusion criteria: both sexes, age ≧20 years and ≦60 years, diagnosis of Leber's optic neuropathy assessed by the presence of at least one of the three most common LHON pathogenic mutations (11778/ND4, 3460/ND1, 14484/ND6), and duration of disease greater than 2 years.\nThe study treatment trial was 12-month, double blind, placebo controlled with participants randomized to receive acetyl L-carnitine (2 g/day orally) or placebo.\nThe primary efficacy end point for the study was the best recovery in visual acuity in either eye measured by change in logMAR (logarithm of Minimal Angle of Resolution) in study eyes comparing the acetyl-L-carnitine treatment group with the placebo treatment control group 6 and 12 months after enrolment. Secondary efficacy outcome was the patients' best visual acuity at 6 and 12 months compared to best visual acuity at baseline."}
{"molecule": "CC(=O)O[C@H](CC(=O)[O-])C[N+](C)(C)C", "note": "[ALC, acetyl-L-carnitine]", "values": [{"measurement": "Visual Acuity Change, Diff", "setting": "T6 (6 months), p < 0.05", "value": "Diff = 14 letters"}, {"measurement": "Visual Acuity Recovery, Diff", "setting": "T6 (6 months), p < 0.05", "value": "Diff = 10 letters"}, {"measurement": "Visual Acuity Change, Diff", "setting": "T12 (12 months), p < 0.01", "value": "Diff = 18 letters"}, {"measurement": "Visual Acuity Recovery, Diff", "setting": "T12 (12 months), p < 0.01", "value": "Diff = 12 letters"}, {"measurement": "improvement of visual acuity recovery (in words)", "setting": "vs placebo, after 6 months (T6) and 12 months (T12)", "value": "significant difference in improvement"}, {"measurement": "visual acuity of eyes (in words)", "setting": "vs placebo, both time points T6 and T12", "value": "significantly improved"}]}
